{"source": "BindingDB's records for doi:10.1021/jm9903343", "about": "(Harvard Medical School, 2000)"}
{"experiment": "Binding affinity towards Opioid receptor delta 1 by displacing the radioligand [3H]naltrindole from guinea pig brain membrane", "units": {"Ki": "nM"}}
{"smiles": "O=C1c2ccc(O)cc2C23CCCCC2C1N(CC1CCCO1)CC3", "note": "(stereo not drawn)", "Ki": 1}
{"smiles": "O=C1c2ccc(O)cc2C23CCCCC2C1N(CC1CC1)CC3", "note": "(stereo not drawn)", "Ki": 150}
{"smiles": "C[C@H]1C2C(=O)c3ccc(O)cc3[C@@]1(C)CCN2CC1CCCO1", "note": "(stereo partly drawn) [8-Hydroxy-6,11-dimethyl-3-(tetrahydro-furan-2-ylmethyl)-3,4,5,6-tetrahydro-2H-2,6-methano-benzo[d]azocin-1-one]", "Ki": "> 100000"}
